According to patent US4638003A, “1-(4-alkylthiophenyl)-2-(substituted or unsubstituted piperazine-1-yl)-1,3-propanediol, pharmaceutical compositions containing them useful as antiarrhythmic and vasodilating agents” (Zambon S.p.A., priority 1983, dated 1987):
Structures can show the parent of a compound that is named as a salt.

How the values were obtained:
anesthetized rat [1] = test: coronary dilating activity (coronary spasm induced by Vasopressin, T wave in E.C.G.) in anesthetized rat; format: in vivo; conditions: T wave restored in 50% of the animals within 2 minutes; for ED50: Rattus norvegicus, iv, 2 min
Source text: The evaluation of the coronary dilating activity has been performed with the method of O. Nieschultz, et al. (Arzneim. Forsch. 5, 680, 1955).

anesthetized rat [2] = test: in vivo; format: in vivo; conditions: for Tolerability: Heart rate (-20%): i.v., compounds solubilized in 40% glyceril formal; for Therapeutic index: ratio between the dose inducing bradycardia 20 and the effective anti-anginal dose 50
Source text: (§1) Furthermore, tolerability has been tested in the same experimental conditions in which it has been performed the pharmacological study in vivo.
(§2) Tolerability has been referred as effective dose to reduce heart rate of 20%. Therapeutic index has been determined as ratio between the dose inducing bradycardia 20 and the effective anti-anginal dose 50.

anesthetized rat [3] = test: antiarrhythmic activity against calcium chloride-induced arrhythmia after intravenous administration in anesthetized rat; format: in vivo; conditions: for ED50: Rattus norvegicus, iv, ten minutes before calcium chloride, read-out: ED50 (dose effective to antagonize the appearance of arrythmia in the 50% of the treated animals)
Description: The evaluation of the antiarrhythmic activity has been performed in the anesthetized rat with the method of M. Malinov et al. (Am. J. Physiol. 172, 743-746, 1953).
Arrythmia has been induced by administering (0.25 ml in 30 seconds) a saline solution containing 15% of calcium chloride into the jugular vein.
In these experimental conditions arrythmia occurs in the 90% of the animals. The compounds have been administered intravenously ten minutes before calcium chloride. The antiarrythmic activity has been referred as dose effective to antagonize the appearance of arrythmia in the 50% of the treated animals (ED50).

in vivo = format: in vivo; conditions: rat, in vivo, iv, ratio between the dose inducing bradycardia 20 and the effective anti-anginal dose 50; read-out: Therapeutic index
Source text: as §1, §2

[4] = test system: isolated rabbit aorta (vascular smooth muscle); test: calcium antagonist activity on isolated rabbit aorta (CaCl2-induced contraction)
Source text: Isolated rabbit aorta: ratio between the CaCl2 con-

[5] = i.v. 60 seconds after Vasopressin
[6] = read-out: Coronary dilating activity ED50, i.v. 60 seconds after Vasopressin
[7] = concentration in perfused liquid 10^-5 M
[8] = concentration in perfused liquid 10^-6 M
[9] = i.v. 60 seconds after Vasopressin, read-out: Coronary dilating activity ED50

SMILES	Tolerability: Heart rate (-20%) (anesthetized rat [2]) [nmols/kg]	ED50 (anesthetized rat [1]; [6]) [µmol/kg]	selectivity ratio (in vivo)	ratio between the CaCl2 concentration producing the 50% contraction in presence or in absence of various compounds [4, 7]	ratio between the CaCl2 concentration producing the 50% contraction in presence or in absence of various compounds [4, 8]	further results
CSc1ccc([C@H](O)[C@H](CO)NC(C)c2ccccc2)cc1 (relative stereo) [Z. 1413, (1S,2S,1'S*)-1-(4-methylthiophenyl)-2-(1-methylbenzylamino)-1,3-propanediol]	230	–	–	–	–	Coronary dilating activity ED50 (anesthetized rat [1]; [5]): 4.5 nmols/kg/i.v.; Therapeutic index (anesthetized rat [2]): 51
COc1ccc(CCN(C)CCCC(C#N)(c2ccc(OC)c(OC)c2)C(C)C)cc1OC (centres unmarked) [Verapamil, reference compound]	–	0.00015	–	–	–	ED50 (anesthetized rat [3]): 6 µmol/kg; number of protected rats/total number (anesthetized rat [3]; dose 4.4 μmols/Kg i.v.): 2/8; number of protected rats/total number (anesthetized rat [3]; dose 7.7 μmols/Kg i.v.): 5/8; number of protected rats/total number (anesthetized rat [3]; dose 11 μmols/Kg i.v.): 6/8
CSc1ccc([C@H](O)[C@H](CO)NCCC(c2ccccc2)c2ccccc2)cc1 [Z. 1382, (1S,2S)-1-(4-methylthiophenyl)-2-(3,3-diphenylpropylamino)-1,3-propanediol acid maleate]	17	0.00084	20	255	20	ED50 (anesthetized rat [3]): 19 µmol/kg; number of protected rats/total number (anesthetized rat [3]; dose 7.6 μmols/Kg i.v.): 1/8; number of protected rats/total number (anesthetized rat [3]; dose 13.4 μmols/Kg i.v.): 4/8; number of protected rats/total number (anesthetized rat [3]; dose 20 μmols/Kg i.v.): 3/8; number of protected rats/total number (anesthetized rat [3]; dose 27 μmols/Kg i.v.): 5/8
CSc1ccc([C@H](O)[C@H](CO)NC(C)COc2ccccc2)cc1 (some centres unmarked) [Z. 1393]	35	0.0038	9	–	–	–
CSc1ccc([C@H](O)[C@H](CO)N2CCN(C(c3ccccc3)c3ccccc3)CC2)cc1 [Z. 1439]	23	0.0033	7	24	4	–
CSc1ccc([C@@H](O)[C@@H](CO)NC(C)COc2ccccc2)cc1 (some centres unmarked) [Z. 1407]	53	0.0032	17	–	–	–
CSc1ccc([C@H](O)[C@H](CO)NCC(c2ccccc2)c2ccccc2)cc1 [Z. 1415, (1S,2S)-1-(4-methylthiophenyl)-2-(2,2-diphenylethylamino)-1,3-propanediol]	49	0.0029	17	27	6	–
CSc1ccc([C@@H](O)[C@@H](CO)NC(C)COc2ccccc2)cc1 (some centres unmarked) [Z. 1408]	76	–	–	–	–	Coronary dilating activity ED50 (anesthetized rat [1]; [5]): 3.7 nmols/kg/i.v.; Therapeutic index (anesthetized rat [2]): 21; ED50 (anesthetized rat [3]): 35 µmol/kg; number of protected rats/total number (anesthetized rat [3]; dose 16 μmols/Kg i.v.): 1/8; number of protected rats/total number (anesthetized rat [3]; dose 32 μmols/Kg i.v.): 4/8; number of protected rats/total number (anesthetized rat [3]; dose 56 μmols/Kg i.v.): 6/8
CSc1ccc([C@H](O)[C@H](CO)N(C)C(C)CCc2ccccc2)cc1 (some centres unmarked) [Z. 1428]	–	–	–	30	2	–
CSc1ccc([C@H](O)[C@H](CO)NC(C)c2ccccc2)cc1 (some centres unmarked) [Z. 1414]	100	0.004	–	–	–	Therapeutic index (anesthetized rat [2]): 25
CSc1ccc([C@@H](O)[C@H](CO)NCCC(c2ccccc2)c2ccccc2)cc1 [Z. 1373]	23	0.0034	7	86	9	–
COC(=O)C1=C(C)NC(C)=C(C(=O)OC)C1c1ccccc1[N+](=O)[O-] [Nifedipine, reference compound]	–	–	–	–	–	ED50 (anesthetized rat [1]; [9]): 0.00057 µmol/kg
Fc1ccc(C(c2ccc(F)cc2)N2CCN(C/C=C/c3ccccc3)CC2)cc1 [Flunarizine, reference compound]	–	–	–	16	1	ED50 (anesthetized rat [1]; [9]): 0.00048 µmol/kg
CC(Cc1ccccc1)NCCC(c1ccccc1)c1ccccc1 (centres unmarked) [Prenylamine, reference compound]	19	0.00184	11	62	12	–
CSc1ccc([C@H](O)[C@H](CO)NC(C)COc2ccccc2)cc1 (some centres unmarked) [Z. 1394]	–	–	–	7	3	–
CSc1ccc([C@H](O)[C@H](CO)NCC(C)c2ccccc2)cc1.Cl (stereo partly drawn) [Z. 1409, (1S,2S)-1-(4-methylthiophenyl)-2-(2-phenylpropylamino)-1,3-propanediol hydrochloride]	73	0.00084	87	12	4	ED50 (anesthetized rat [3]): 43 µmol/kg; number of protected rats/total number (anesthetized rat [3]; dose 8 μmols/Kg i.v.): 0/8; number of protected rats/total number (anesthetized rat [3]; dose 16 μmols/Kg i.v.): 2/8; number of protected rats/total number (anesthetized rat [3]; dose 24 μmols/Kg i.v.): 3/8; number of protected rats/total number (anesthetized rat [3]; dose 48 μmols/Kg i.v.): 5/8
COc1ccc(CCC(C)N[C@@H](CO)[C@@H](O)c2ccc(SC)cc2)cc1OC.Cl (relative stereo) [Z. 1434, (1S,2S)-1-(4-methylthiophenyl)-2-[1-methyl-3-(3,4-dimethoxyphenyl)-propylamino]-1,3propanediol hydrochloride]	42	0.00045	93	21	5	–
CSc1ccc([C@H](O)[C@H](CO)NC(C)CCc2ccccc2)cc1.Cl (relative stereo) [Z. 1411, (1S,2S)-1-(4-methylthiophenyl)-2-(1-methyl-3-phenylpropylamino)-1,3-propanediol hydrochloride]	44	0.001	44	15	10	ED50 (anesthetized rat [3]): 13 µmol/kg; number of protected rats/total number (anesthetized rat [3]; dose 8 μmols/Kg i.v.): 0/8; number of protected rats/total number (anesthetized rat [3]; dose 12 μmols/Kg i.v.): 4/8; number of protected rats/total number (anesthetized rat [3]; dose 16 μmols/Kg i.v.): 6/8
